The results in this text go back to doi:10.1101/2024.10.11.617883, “A Streamlined High-Throughput LC-MS Assay for Quantifying Peptide Degradation in Cell Culture” (bioRxiv, 2024).

Where two headings read alike, the source gives them in different places. A value given as a limit tells only on which side of the number the result lay.

One data set in a line: in vitro. The following applies: human, cells or culture medium.
Data set [1] is described as follows: Retention on the reverse-phase LC-MS column. It is filed as physicochemical. As for the experimental part:
The column temperature was a constant 29 °C. The mass spectrometer was operated in positive ion mode.
Since salts from cell culture media adversely impact ionization and foul the MS, we send the mobile phase from the first 1.5 minutes of LCMS to waste prior to ionization to prevent salt accumulation in the mass spectrometer. Accordingly, peptides and internal standards which elute before the gradient begins are not suitable for quantification since they will not be analyze by the mass spectrometer. N-terminal acetylation, the addition of a phenylalanine, or β-homophenylalanine improves retention time by increasing they hydrophobicity of the polypeptide, which increases the affinity to the column (Figure 2A). After 48 hours of degradation, three internal standards candidates had both good retention times and less than 10% degradation (Figure 2B): 1) Ac-βA6-Amide, 2) NH2-βFβA6-Amide, and 3) Ac-FβA6-Amide. The ability of molecules to be identified in mass spectrometry is dependent on their propensity to become ionized, and the Ac-βA6-Amide standard was excluded due to weak signal intensity of the LC-MS (not shown), likely due to the lack of charged groups. […]

In data set [2] the test system is human mesenchymal stem cells (hMSCs).
Method: (§1) Human mesenchymal stem cells (hMSCs) (Rooster Bio, LOT 310368) at passage 3 were seeded into 24 well plates at a seeding density of 75,000 cells per well in 1mL of RoosterBasal-MSC-CC (RoosterBio, SU-022) containing RoosterBooster-MSC (RoosterBio SU-003). After 24 hour the media was changed, and peptide library AcβA-RGEFV-X-NH2 was added to the cell media for a final concentration of 37 μM per peptide. Each Library was tested in three times, each in triplicate with three technical repeats for a total of 27 wells. 40 μl samples were collected from the media at hours 0, 1, 4, 8, 24, and 48 in duplicate.
(§2) In-between timepoints, one set of samples was loaded directly within the LC-MS and measured as soon as possible, then stored at 4°C. The second set of samples was immediately frozen at −80°C. After 48 hours, samples were kept frozen and thawed just prior to LC-MS, and 4μL of acetic acid was added to each well. After three weeks the samples were tested again.
(§3) From each sample, 10 μL of crude solution was introduced by the LC-MS through an Thermo Scientific Vanquish LC System (Thermo Fisher Scientific) which outputted to a Thermo Scientific LTQ XL Linear Ion Trap Mass Spectrometer (Thermo Fisher Scientific). The sampled mixture was trapped on a column (ProntoSIL C18 AQ, 120 Å, 3 μm, 2.0 × 50 mm HPLC Column, PN 0502F184PS030, MAC-MOD Analytical Inc.). The samples were loaded onto the column with a solvent containing acetonitrile/water, 5:95 (v/v) containing 1% acetic acid at a flow rate of 300 μL/min and held for one minute. The sample was then eluted from the column with a linear gradient of 5–40% Solvent B (1% acetic acid in acetonitrile) at the same flow rate for five minutes. This was followed by a 1 min ramp up to 100% solvent B, where it was re-equilibrated with solvent A (1% acetic acid) to 5% solvent B over the course of 1 min and held there for 2 min. The column temperature was a constant 29 °C. The mass spectrometer was operated in positive ion mode. Using a heated ESI, the source voltage was set to 4.1 kV, and the capillary temperature was 350 °C.
(§4) Data analysis was performed on Xcalibur Software (Thermo Scientific). Peptides were identified automatically using the Thermo Xcalibur Processing Setup window where the mass (m/z) ±0.5 AMU and expected retention times for each quantified peptide were inputted. This was later used to isolate individual peptide species from the total ion count (TIC) trace using the Thermo Xcalibur Quan Setup window, where the area under the curve was calculated and visually inspected for accuracy. […] The integrated peak area of the peptide of interest was divided by the NH2-βF(βA)6-Amide internal standard to create an area ratio. Relative amounts of a peptide of peptide were then calculated by normalized all values to their corresponding time zero area ratio. Calculated data was visualized using RStudio.
The conditions of data set [3]: human, cells or culture medium.
Method: as §1, §2, §3, §4

Method for in vitro: as §1, §2, §3, §4

For the compound `CC(=O)N[C@@H](Cc1ccccc1)C(=O)NCCC(=O)NCCC(=O)NCCC(=O)NCCC(=O)NCCC(=O)NCCC(N)=O` [Ac-FβA6-Amide], in “in vitro”, the metabolised at 48 h was under 10%.
`CC(=O)NCCC(=O)NCCC(=O)NCCC(=O)NCCC(=O)NCCC(=O)NCCC(N)=O` [Ac-βA6-Amide] displayed a metabolised at 48 h in “in vitro” of under 10%.
For the compound `NCCC(=O)NCCC(=O)NCCC(=O)NCCC(=O)NCCC(=O)NCCC(N)=O` [NH2-(βA)6-Amide], the “affinity to the LC-MS column (retention)” value in data set [1] (ProntoSIL C18 AQ, gradient begins after 1 min at 5% B, first 1.5 minutes sent to waste) is listed as “eluting before the chromatography gradient begins”.
As for `NC(=O)CCNC(=O)CCNC(=O)CCNC(=O)CCNC(=O)CCNC(=O)CCNC(=O)C[C@@H](N)Cc1ccccc1` [NH2-βFβA6-Amide], the “time stable in cell culture” value in data set [2] stood at 48 h. Further, in data set [3], the metabolised at 48 h is under 10% and the amount remaining at 48 h is over 92%. The peptide elution time in data set [1] (ProntoSIL C18 AQ 2.0 x 50 mm, 5% B held 1 min then 5-40% acetonitrile (1% acetic acid) over 5 min, 300 μL/min, 29 °C, retention tied to hydrophobicity and column affinity) was 2.68 min.
